# Experimental data reported in patent US10954269B2, “Anti-inflammatory tripeptides” (Dr. August Wolff Gmbh & Co. KG Arzneimittel, priority 2013, dated 2021).
# [ ]: non-standard residue; d: D form. Aib = CC(C)(N)C(=O)O
# Tested on: primary murine T-cells
# Assay: Cytokine secretion on protein level in activated primary murine T-cells (13-plex FACS / Luminex, supernatant)
# Format: cell-based, C57BL/6 mice
# Details: for IFN-γ* cytokine concentration / IL-2* cytokine concentration: 1:10 dilution of the supernatants
# Summary of the method: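 T-cells from secondary lymphatic organs of naïve C57BL/6 mice, stimulated with PMA/Ionomycin or IFN-γ; supernatant cytokines measured by 13-plex FACS 48 h and 72 h after stimulation. In another run, PMA/Ionomycin-stimulated cells received compounds at 10^−7, 10^−9 and 10^−11 M, with IFN-γ, IL-17 and IL-10 measured by Luminex.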
# [1] = primary murine T-cells stimulated with IFN-γ, 10^−9M
# [2] = primary murine T-cells stimulated with IFN-γ, substance 10^−9M
# [3] = primary murine T-cells stimulated with PBS, 10^−9M
# [4] = primary murine T-cells stimulated with PBS, substance 10^−9M
# [5] = primary murine T-cells stimulated with PMA/Ionomycin, 10^−9M
# [6] = primary murine T-cells stimulated with PMA/Ionomycin, substance 10^−9M
substance,measurement,setting,value
"H-Lys-[dP]-Thr-OH [K(D)PT, reference compound]",IL-1 cytokine concentration,[1],26.6 pg/mL
same,IL-2 cytokine concentration,[1],0 pg/mL
same,IL-4 cytokine concentration,[1],0 pg/mL
same,IL-5 cytokine concentration,[1],0 pg/mL
same,IL-6 cytokine concentration,[1],0 pg/mL
same,IL-10 cytokine concentration,[1],0 pg/mL
same,IL-13 cytokine concentration,[1],0 pg/mL
same,IL-17 cytokine concentration,[1],0 pg/mL
same,IL-21 cytokine concentration,[1],0 pg/mL
same,IL-22 cytokine concentration,[1],0 pg/mL
same,IL-27 cytokine concentration,[1],209.12 pg/mL
same,TNF-α cytokine concentration,[1],0 pg/mL
same,IL-1 cytokine concentration,[2],93.77 pg/mL
same,IL-2 cytokine concentration,[2],98.22 pg/mL
same,IL-4 cytokine concentration,[2],85.32 pg/mL
same,IL-5 cytokine concentration,[2],271.81 pg/mL
same,IL-6 cytokine concentration,[2],144.97 pg/mL
same,IL-10 cytokine concentration,[2],1061 pg/mL
same,IL-13 cytokine concentration,[2],0 pg/mL
same,IL-17 cytokine concentration,[2],88.84 pg/mL
same,IL-21 cytokine concentration,[2],0 pg/mL
same,IL-22 cytokine concentration,[2],48.13 pg/mL
same,IL-27 cytokine concentration,[2],0 pg/mL
same,TNF-α cytokine concentration,[2],34.84 pg/mL
same,IFN-γ cytokine concentration,[3],0 pg/mL
same,IL-1 cytokine concentration,[3],0 pg/mL
same,IL-2 cytokine concentration,[3],0 pg/mL
same,IL-4 cytokine concentration,[3],0 pg/mL
same,IL-5 cytokine concentration,[3],0 pg/mL
same,IL-6 cytokine concentration,[3],27.81 pg/mL
same,IL-10 cytokine concentration,[3],64.53 pg/mL
same,IL-13 cytokine concentration,[3],0 pg/mL
same,IL-17 cytokine concentration,[3],16.26 pg/mL
same,IL-21 cytokine concentration,[3],0 pg/mL
same,IL-22 cytokine concentration,[3],0 pg/mL
same,IL-27 cytokine concentration,[3],25.93 pg/mL
same,TNF-α cytokine concentration,[3],0 pg/mL
same,IFN-γ cytokine concentration,[4],0 pg/mL
same,IL-1 cytokine concentration,[4],60.41 pg/mL
same,IL-2 cytokine concentration,[4],124.13 pg/mL
same,IL-4 cytokine concentration,[4],71.69 pg/mL
same,IL-5 cytokine concentration,[4],373.93 pg/mL
same,IL-6 cytokine concentration,[4],124 pg/mL
same,IL-10 cytokine concentration,[4],1039.39 pg/mL
same,IL-13 cytokine concentration,[4],0 pg/mL
same,IL-17 cytokine concentration,[4],0 pg/mL
same,IL-21 cytokine concentration,[4],0 pg/mL
same,IL-22 cytokine concentration,[4],78.32 pg/mL
same,IL-27 cytokine concentration,[4],87.48 pg/mL
same,TNF-α cytokine concentration,[4],77.74 pg/mL
same,IL-1 cytokine concentration,[5],30.27 pg/mL
same,IL-4 cytokine concentration,[5],71.79 pg/mL
same,IL-5 cytokine concentration,[5],280.87 pg/mL
same,IL-6 cytokine concentration,[5],140.97 pg/mL
same,IL-10 cytokine concentration,[5],188.56 pg/mL
same,IL-13 cytokine concentration,[5],4314.15 pg/mL
same,IL-17 cytokine concentration,[5],423.67 pg/mL
same,IL-21 cytokine concentration,[5],0 pg/mL
same,IL-22 cytokine concentration,[5],333.4 pg/mL
same,IL-27 cytokine concentration,[5],99.7 pg/mL
same,TNF-α cytokine concentration,[5],515.54 pg/mL
same,IFN-γ* cytokine concentration,[5],712.81 pg/mL
same,IL-2* cytokine concentration,[5],1288.92 pg/mL
same,IFN-γ cytokine concentration,[6],2117.29 pg/mL
same,IL-1 cytokine concentration,[6],175.59 pg/mL
same,IL-2 cytokine concentration,[6],152.69 pg/mL
same,IL-4 cytokine concentration,[6],72.07 pg/mL
same,IL-5 cytokine concentration,[6],238.08 pg/mL
same,IL-6 cytokine concentration,[6],201.87 pg/mL
same,IL-10 cytokine concentration,[6],1133.29 pg/mL
same,IL-13 cytokine concentration,[6],0 pg/mL
same,IL-17 cytokine concentration,[6],70.93 pg/mL
same,IL-21 cytokine concentration,[6],0 pg/mL
same,IL-22 cytokine concentration,[6],90.3 pg/mL
same,IL-27 cytokine concentration,[6],126.71 pg/mL
same,TNF-α cytokine concentration,[6],49.63 pg/mL
H-Phe-Pro-[Aib]-OH [Example 13],IL-1 cytokine concentration,[2],82.68 pg/mL
same,IL-2 cytokine concentration,[2],237.05 pg/mL
same,IL-4 cytokine concentration,[2],0 pg/mL
same,IL-5 cytokine concentration,[2],342.32 pg/mL
same,IL-6 cytokine concentration,[2],220.06 pg/mL
same,IL-10 cytokine concentration,[2],968.94 pg/mL
same,IL-13 cytokine concentration,[2],0 pg/mL
same,IL-17 cytokine concentration,[2],26.88 pg/mL
same,IL-21 cytokine concentration,[2],0 pg/mL
same,IL-22 cytokine concentration,[2],334.1 pg/mL
same,IL-27 cytokine concentration,[2],151.6 pg/mL
same,TNF-α cytokine concentration,[2],52.48 pg/mL
same,IFN-γ cytokine concentration,[4],5058.59 pg/mL
same,IL-1 cytokine concentration,[4],64.4 pg/mL
same,IL-2 cytokine concentration,[4],173.84 pg/mL
same,IL-4 cytokine concentration,[4],25.55 pg/mL
same,IL-5 cytokine concentration,[4],401.21 pg/mL
same,IL-6 cytokine concentration,[4],168.6 pg/mL
same,IL-10 cytokine concentration,[4],829.52 pg/mL
same,IL-13 cytokine concentration,[4],0 pg/mL
same,IL-17 cytokine concentration,[4],0 pg/mL
same,IL-21 cytokine concentration,[4],0 pg/mL
same,IL-22 cytokine concentration,[4],0 pg/mL
same,IL-27 cytokine concentration,[4],302.6 pg/mL
same,TNF-α cytokine concentration,[4],62.22 pg/mL
same,IFN-γ cytokine concentration,[6],8109.91 pg/mL
same,IL-1 cytokine concentration,[6],329.99 pg/mL
same,IL-2 cytokine concentration,[6],260.49 pg/mL
same,IL-4 cytokine concentration,[6],135.41 pg/mL
same,IL-5 cytokine concentration,[6],452.71 pg/mL
same,IL-6 cytokine concentration,[6],404.54 pg/mL
same,IL-10 cytokine concentration,[6],1267.4 pg/mL
same,IL-13 cytokine concentration,[6],0 pg/mL
same,IL-17 cytokine concentration,[6],0 pg/mL
same,IL-21 cytokine concentration,[6],432.64 pg/mL
same,IL-22 cytokine concentration,[6],111.64 pg/mL
same,IL-27 cytokine concentration,[6],387.94 pg/mL
same,TNF-α cytokine concentration,[6],69.4 pg/mL
"alpha-melanocyte-stimulating hormone [α-MSH, reference compound]",IL-1 cytokine concentration,[1],14.89 pg/mL
same,IL-2 cytokine concentration,[1],0 pg/mL
same,IL-4 cytokine concentration,[1],0 pg/mL
same,IL-5 cytokine concentration,[1],0 pg/mL
same,IL-6 cytokine concentration,[1],0 pg/mL
same,IL-10 cytokine concentration,[1],0 pg/mL
same,IL-13 cytokine concentration,[1],0 pg/mL
same,IL-17 cytokine concentration,[1],0 pg/mL
same,IL-21 cytokine concentration,[1],0 pg/mL
same,IL-22 cytokine concentration,[1],0 pg/mL
same,IL-27 cytokine concentration,[1],0 pg/mL
same,TNF-α cytokine concentration,[1],0 pg/mL
same,IL-1 cytokine concentration,[2],88.22 pg/mL
same,IL-2 cytokine concentration,[2],96.1 pg/mL
same,IL-4 cytokine concentration,[2],20.56 pg/mL
same,IL-5 cytokine concentration,[2],220.39 pg/mL
same,IL-6 cytokine concentration,[2],133.9 pg/mL
same,IL-10 cytokine concentration,[2],1117.07 pg/mL
same,IL-13 cytokine concentration,[2],0 pg/mL
same,IL-17 cytokine concentration,[2],55.11 pg/mL
same,IL-21 cytokine concentration,[2],0 pg/mL
same,IL-22 cytokine concentration,[2],50.6 pg/mL
same,IL-27 cytokine concentration,[2],104.04 pg/mL
same,TNF-α cytokine concentration,[2],36.8 pg/mL
same,IFN-γ cytokine concentration,[3],0 pg/mL
same,IL-1 cytokine concentration,[3],0 pg/mL
same,IL-2 cytokine concentration,[3],0 pg/mL
same,IL-4 cytokine concentration,[3],0 pg/mL
same,IL-5 cytokine concentration,[3],0 pg/mL
same,IL-6 cytokine concentration,[3],16.44 pg/mL
same,IL-10 cytokine concentration,[3],55.47 pg/mL
same,IL-13 cytokine concentration,[3],0 pg/mL
same,IL-17 cytokine concentration,[3],0 pg/mL
same,IL-21 cytokine concentration,[3],0 pg/mL
same,IL-22 cytokine concentration,[3],0 pg/mL
same,IL-27 cytokine concentration,[3],0 pg/mL
same,TNF-α cytokine concentration,[3],0 pg/mL
same,IFN-γ cytokine concentration,[4],0 pg/mL
same,IL-1 cytokine concentration,[4],58.5 pg/mL
same,IL-2 cytokine concentration,[4],105.75 pg/mL
same,IL-4 cytokine concentration,[4],62.93 pg/mL
same,IL-5 cytokine concentration,[4],281.14 pg/mL
same,IL-6 cytokine concentration,[4],96.88 pg/mL
same,IL-10 cytokine concentration,[4],1157.87 pg/mL
same,IL-13 cytokine concentration,[4],0 pg/mL
same,IL-17 cytokine concentration,[4],0 pg/mL
same,IL-21 cytokine concentration,[4],0 pg/mL
same,IL-22 cytokine concentration,[4],72.14 pg/mL
same,IL-27 cytokine concentration,[4],77.41 pg/mL
same,TNF-α cytokine concentration,[4],106.1 pg/mL
same,IL-1 cytokine concentration,[5],28.92 pg/mL
same,IL-4 cytokine concentration,[5],0 pg/mL
same,IL-5 cytokine concentration,[5],262.76 pg/mL
same,IL-6 cytokine concentration,[5],114.47 pg/mL
same,IL-10 cytokine concentration,[5],276.08 pg/mL
same,IL-13 cytokine concentration,[5],3966.69 pg/mL
same,IL-17 cytokine concentration,[5],311.07 pg/mL
same,IL-21 cytokine concentration,[5],0 pg/mL
same,IL-22 cytokine concentration,[5],356.41 pg/mL
same,IL-27 cytokine concentration,[5],0 pg/mL
same,TNF-α cytokine concentration,[5],535.51 pg/mL
same,IFN-γ* cytokine concentration,[5],0 pg/mL
same,IL-2* cytokine concentration,[5],849.44 pg/mL
same,IFN-γ cytokine concentration,[6],1458.12 pg/mL
same,IL-1 cytokine concentration,[6],217.32 pg/mL
same,IL-2 cytokine concentration,[6],163.19 pg/mL
same,IL-4 cytokine concentration,[6],91.65 pg/mL
same,IL-5 cytokine concentration,[6],215.44 pg/mL
same,IL-6 cytokine concentration,[6],174.22 pg/mL
same,IL-10 cytokine concentration,[6],1250.21 pg/mL
same,IL-13 cytokine concentration,[6],0 pg/mL
same,IL-17 cytokine concentration,[6],29.47 pg/mL
same,IL-21 cytokine concentration,[6],0 pg/mL
same,IL-22 cytokine concentration,[6],143.37 pg/mL
same,IL-27 cytokine concentration,[6],104.52 pg/mL
same,TNF-α cytokine concentration,[6],77.76 pg/mL
